Assay results from patent US12497405B2, “Bicyclic heterocycle compounds methods of use thereof for the treatment of herpes viruses” (Merck Sharp & Dohme LLC, priority 2019, dated 2025).
Like-named read-outs stand apart in the source and are kept apart here.

What was measured:
HSV1 = assay: Viral qPCR assay, HSV1; format: cell-based; settings: infected cells, viral genome copies by qPCR normalized to PPIA, read-out: HSV1 Cell EC50
Description: (§1) MRC5 cells, Vero cells, and MeWo cells were obtained from ATCC, and were maintained at 37° C./5% CO2/90% relative humidity in Minimal Essential Medium with 10% fetal bovine serum, […] L-glutamine, 100 units/ml penicillin and 100 ug/ml streptomycin. Assay plates were prepared by dispensing compounds dissolved in DMSO into wells of 384 well collagen-coated plates using an ECHO acoustic dispenser. Each test compound was tested in a 10-point, serial 3-fold dilution. Controls included uninfected cells and infected cells treated only with DMSO. Assays were initiated by mixing selected cells, in suspension, with virus, and dispensing 50 μl/well infected cells to pre-plated compounds. Plates were incubated at 37° C./5% CO2/90% relative humidity for ˜72 hrs to permit genomic replication, and infected cells were lysed by the addition of an equal volume of lysis buffer (10 mM Tris-HCl, pH8, 50 mM KCl, 2 mM MgCl2, 0.45% NP-40, 0.45% Tween-20, and 100 µg/ml proteinase K). An aliquot of the lysate was then transferred to a 384-well PCR plate and incubated at 56° C. for 1 hour, and then at 95° C. for 10 minutes. Levels of the selected viral gene and of the cellular control, PPIA, were measured in separate 10 μl qPCR assays using TaqMan® Gene Expression Master Mix (Applied Biosystems), and an 7900HT Fast Real-Time PCR System with 384-Well Block Module. 7-point, serial 10-fold dilutions of a plasmid standard were run on each plate to generate a standard curve, and genome copies numbers were calculated by plotting experimental Ct onto linear regression of the standard curve. Viral genome copy numbers were normalized by cellular control copy number, and compound effects were normalized to the window defined by the controls. Calculated % effects were fit using a 4-parameter algorithm, and EC50 was reported.

[1] = target: Human cytomegalovirus DNA polymerase (Human cytomegalovirus (strain AD169) (HHV-5) (Human herpesvirus 5), UniProt P08546); assay: CMV polymerase assay (AlphaLISA); format: biochemical; settings: HCMV polymerase 0.2 nM, 30 min pre-incubation, 60 minute at 37° C.
Description: (§2) Human cytomegalovirus and varicella zoster virus DNA polymerases were expressed via baculovirus vector in SF21 cells and purified. Heterodimeric nucleic acid substrate used in the herpesvirus polymerase reactions were generated by annealing a 59-mer template to a 17-mer digoxigenin-labeled primer. Polymerase (HCMV final concentration of 0.2 nM; VZV final concentration of 0.4 nM) was combined with an inhibitor compound or DMSO in assay buffer (10 mM HEPES, pH 7.5, 25 mM KCl, 25 mM NaCl, 5 mM MgCl2, 5% glycerol, 0.67 mg/ml bovine serum albumin, and 1 mM tris(2-carboxyethyl)phosphine)), and this mixture was pre-incubated for 30 minutes at room temperature in 384-well microtiter plates. The polymerization reaction was initiated by the addition of template/primer substrate (final concentration: 1.6 nM), and dNTPs (final concentration: 24 nM dCTP, 24 nMdGTP, 16 nM dATP, 16 nM dTTP, and 0.8 nM biotin-dUTP). After a 60 minute incubation period at 37° C., the reactions were terminated using quench buffer (25 mM HEPES pH 7.5, 100 mM NaCl, 0.25% Tween-20, 12 mM EDTA, and 1 mg/ml bovine serum albumin). Incorporation of biotinylated UTP was detected with 2.5-5 μg/mL anti-DIG AlphaLISA acceptor beads and 5-10 μg/mL streptavidin AlphaLISA donor beads (PerkinElmer). Compound effects were normalized to the window defined by the controls (DMSO only and pre-quenched wells), and were fit using a 4-parameter algorithm to report an IC50.

[2] = target: varicella zoster virus DNA polymerase (Varicella-zoster virus (strain Dumas) (HHV-3) (Human herpesvirus 3), UniProt P09252); assay: VZV polymerase assay (AlphaLISA); format: biochemical; settings: VZV polymerase 0.4 nM, 30 min pre-incubation, 60 minute at 37° C.
Description: as §2

CMV = assay: Viral qPCR assay, CMV; format: cell-based; settings: infected cells, viral genome copies by qPCR normalized to PPIA, read-out: CMV Cell EC50
Description: as §1

HSV2 = assay: Viral qPCR assay, HSV2; format: cell-based; settings: infected cells, viral genome copies by qPCR normalized to PPIA, read-out: HSV2 Cell EC50
Description: as §1

Row | SMILES | EC50 (HSV1; ~72 hrs) | IC50 [1] | IC50 [2] | EC50 (CMV; ~72 hrs) | EC50 (HSV2; ~72 hrs) | EC50 (HSV1; Human alphaherpesvirus 1, 72 h) | EC50 (CMV; Human betaherpesvirus 5, 72 h) | EC50 (HSV2; Human alphaherpesvirus 2, 72 h)
1 | O=C1OC[C@@H]2C[C@@H](Oc3cc4c(=O)n(Cc5ccc(Cl)cc5)cnc4nc3-c3cnco3)CCN12 [Example 7] | 118 nM | 4.6 nM | 9.2 nM | 104 nM | 89 nM | – | – | –
2 | COc1nc2cc(-c3cnco3)c(O[C@H]3CCN4C(=O)OC[C@@H]4C3)cc2c(=O)n1Cc1ccc(C#N)cc1 [Example 9] | 20 nM | 0.44 nM | 0.44 nM | 35 nM | 13 nM | – | – | –
3 | N#Cc1ccc(Cn2c(=O)[nH]c3cc(-c4cnco4)c(O[C@H]4CCN5C(=O)OC[C@@H]5C4)cc3c2=O)cc1 [Example 10] | 109 nM | 0.24 nM | 0.28 nM | 70 nM | 68 nM | – | – | –
4 | Cc1nc2cc(-c3ccn(C(F)F)n3)c(O[C@H]3CCN4C(=O)OC[C@@H]4C3)cc2c(=O)n1Cc1ccc(C#N)cc1 [Example 11] | 51 nM | 0.55 nM | 2.5 nM | 54 nM | 35 nM | – | – | –
5 | Cc1nc2cc(-c3cn(C(F)F)nn3)c(O[C@H]3CCN4C(=O)OC[C@@H]4C3)cc2c(=O)n1Cc1ccc(Cl)cc1 [Example 12] | 73 nM | 0.47 nM | 0.47 nM | 112 nM | 61 nM | – | – | –
6 | Cc1nc2cc(-c3ccn(C(F)F)n3)c(O[C@H]3CCN4C(=O)OC[C@@H]4C3)cc2c(=O)n1Cc1ccc(Cl)cc1 [Example 13] | 37 nM | 1 nM | 3.5 nM | 49 nM | 38 nM | – | – | –
7 | COc1ccc(-c2cc3nc(C)n(Cc4ccc(Cl)cc4)c(=O)c3cc2O[C@H]2CCN3C(=O)OC[C@@H]3C2)nn1 [Example 14] | 374 nM | 13 nM | 14 nM | 280 nM | 268 nM | – | – | –
8 | CC(=O)N1CCC(Oc2ccc3ccn(Cc4ccc(Cl)cc4)c(=O)c3c2)CC1 [Example 22] | – | 386 nM | 71 nM | – | – | 5630 nM | 4240 nM | 4280 nM
9 | O=C1OC[C@@H]2C[C@@H](Oc3ccc4ccn(Cc5ccc(Cl)cc5)c(=O)c4c3)CCN12 [Example 23] | – | 40 nM | 26 nM | – | – | 1320 nM | 482 nM | 961 nM
10 | O=C1OC[C@@H]2C[C@@H](Oc3ccc4ncn(Cc5ccc(Cl)cc5)c(=O)c4c3)CCN12 [Example 24] | – | 27 nM | 35 nM | – | – | 501 nM | 216 nM | 342 nM
11 | O=C1OC[C@@H]2C[C@@H](Oc3cnc4ccn(Cc5ccc(Cl)cc5)c(=O)c4c3)CCN12 [Example 25] | – | 76 nM | 55 nM | – | – | 1310 nM | 569 nM | 730 nM
12 | Cc1cc2ccn(Cc3ccc(Cl)cc3)c(=O)c2cc1O[C@H]1CCN2C(=O)OC[C@@H]2C1 [Example 26] | – | 13 nM | 18 nM | – | – | 673 nM | 298 nM | 356 nM
13 | O=C1OC[C@@H]2C[C@@H](Oc3cc4c(=O)n(Cc5ccc(Cl)cc5)ccc4cc3-c3cnn(C(F)F)c3)CCN12 [Example 27] | – | 5.3 nM | 5.9 nM | – | – | 124 nM | 114 nM | 59 nM
14 | O=C1OC[C@@H]2C[C@@H](Oc3cnc4ncn(Cc5ccc(Cl)cc5)c(=O)c4c3)CCN12 [Example 28] | – | 48 nM | 60 nM | – | – | 1250 nM | 500 nM | 884 nM
